The source made the active and inactive calls. No cut-off for these calls is given here.
How the values were obtained:
[1] = target: Dipeptidyl peptidase 8 (Homo sapiens, UniProt Q6V1X1); assay: Inhibition of human recombinant DPP-8 using H-Gly-Pro-AMC as substrate after 10 mins by fluorescence assay
[2] = target: Dipeptidyl peptidase 9 (Homo sapiens, UniProt Q86TI2); assay: Inhibition of human recombinant DPP-9 using H-Gly-Pro-AMC as substrate after 10 mins by fluorescence assay
[3] = Induction of NO production in pH 7.4 PBS incubated for 1 to 14 hrs under dark conditions and measured every 1 hr for 2 hrs and then every 2 hrs for remaining time by Griess assay; assay type: functional
[4] = Inhibition of ADP-induced platelet aggregation in human platelet-rich plasma at 0.1 mM preincubated for 5 mins followed by ADP-stimulation and measured within 5 mins by Born's turbidimetric analysis relative to control; settings: read-out: INH

Sequence of Dipeptidyl peptidase 8 (Q6V1X1 whole entry): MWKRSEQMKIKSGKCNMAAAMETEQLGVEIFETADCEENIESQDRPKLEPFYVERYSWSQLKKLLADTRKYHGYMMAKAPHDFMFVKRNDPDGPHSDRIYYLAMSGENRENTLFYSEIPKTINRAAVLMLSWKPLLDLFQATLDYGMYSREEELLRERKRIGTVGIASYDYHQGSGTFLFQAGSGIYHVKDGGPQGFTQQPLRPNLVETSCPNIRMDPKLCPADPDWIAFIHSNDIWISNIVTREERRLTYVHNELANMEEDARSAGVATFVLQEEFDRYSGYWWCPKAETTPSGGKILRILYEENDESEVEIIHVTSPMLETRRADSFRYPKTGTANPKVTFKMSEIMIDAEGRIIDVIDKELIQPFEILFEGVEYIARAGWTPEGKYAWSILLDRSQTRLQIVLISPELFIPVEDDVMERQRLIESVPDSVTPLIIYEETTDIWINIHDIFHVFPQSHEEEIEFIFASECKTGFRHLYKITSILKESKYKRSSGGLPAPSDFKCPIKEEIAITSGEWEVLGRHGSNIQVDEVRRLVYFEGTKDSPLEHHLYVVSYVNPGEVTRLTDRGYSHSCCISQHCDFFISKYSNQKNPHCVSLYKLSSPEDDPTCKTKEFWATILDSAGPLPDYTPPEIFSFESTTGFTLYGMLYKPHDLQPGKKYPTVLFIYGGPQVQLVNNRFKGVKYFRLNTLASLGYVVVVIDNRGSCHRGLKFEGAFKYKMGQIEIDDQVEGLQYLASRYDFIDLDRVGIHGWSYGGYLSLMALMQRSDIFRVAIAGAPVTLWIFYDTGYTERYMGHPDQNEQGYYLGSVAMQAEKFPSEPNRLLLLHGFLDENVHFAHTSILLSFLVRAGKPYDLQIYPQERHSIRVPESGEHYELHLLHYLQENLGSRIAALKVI
Sequence of Dipeptidyl peptidase 9 (Q86TI2 whole entry): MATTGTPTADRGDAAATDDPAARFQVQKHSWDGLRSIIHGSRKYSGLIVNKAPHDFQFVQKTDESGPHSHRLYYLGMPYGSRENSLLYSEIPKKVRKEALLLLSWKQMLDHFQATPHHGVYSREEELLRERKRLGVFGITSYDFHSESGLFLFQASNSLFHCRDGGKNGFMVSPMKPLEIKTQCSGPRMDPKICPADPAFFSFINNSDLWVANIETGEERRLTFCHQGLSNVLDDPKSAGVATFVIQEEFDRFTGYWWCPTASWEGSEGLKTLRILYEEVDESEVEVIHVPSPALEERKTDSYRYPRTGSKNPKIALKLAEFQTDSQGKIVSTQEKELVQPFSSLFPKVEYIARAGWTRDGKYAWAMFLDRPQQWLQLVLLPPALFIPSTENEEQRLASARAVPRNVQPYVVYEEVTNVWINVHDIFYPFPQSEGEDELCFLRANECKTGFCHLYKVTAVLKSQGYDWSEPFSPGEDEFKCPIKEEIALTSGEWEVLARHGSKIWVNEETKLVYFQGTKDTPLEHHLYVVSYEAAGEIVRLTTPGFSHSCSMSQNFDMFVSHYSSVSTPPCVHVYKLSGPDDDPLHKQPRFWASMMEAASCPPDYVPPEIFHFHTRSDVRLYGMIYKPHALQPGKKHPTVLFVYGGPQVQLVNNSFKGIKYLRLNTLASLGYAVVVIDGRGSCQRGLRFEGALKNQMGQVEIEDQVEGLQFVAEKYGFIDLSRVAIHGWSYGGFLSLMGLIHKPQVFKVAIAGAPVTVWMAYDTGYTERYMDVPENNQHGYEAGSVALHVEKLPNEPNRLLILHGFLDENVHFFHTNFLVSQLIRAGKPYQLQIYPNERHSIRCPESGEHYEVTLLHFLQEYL

Q: For `O=C(CCCCCO[N+](=O)[O-])N[C@@H](CC(=O)N1CCn2c(nnc2C(F)(F)F)C1)Cc1cc(F)c(F)cc1F`, which IC50 [1] is on record?
A: > 100 µM

Q: And the IC50 [2]?
A: > 100 µM

Q: What about the Activity [3] of the same molecule?
A: Active

Q: What about the inhibition at 100 µM [4] of the same molecule?
A: 40.2%

Q: With `N[C@@H](CC(=O)N1CCn2c(nnc2C(F)(F)F)C1)Cc1cc(F)c(F)cc1F` [SITAGLIPTIN] as the molecule, how does the inhibition at 100 µM [4] read?
A: 4.24%

Q: With `O=C(CCCCO)N[C@@H](CC(=O)N1CCn2c(nnc2C(F)(F)F)C1)Cc1cc(F)c(F)cc1F` as the molecule, how does the IC50 [1] read?
A: > 100 µM

Q: And the IC50 [2]?
A: > 100 µM

Q: And the inhibition at 100 µM [4]?
A: 2.02%

Q: For `CC(=O)Oc1ccccc1C(=O)O` [ASPIRIN], which inhibition at 100 µM [4] is on record?
A: 26%

Q: For `O=C(CCCCCO)N[C@@H](CC(=O)N1CCn2c(nnc2C(F)(F)F)C1)Cc1cc(F)c(F)cc1F`, which IC50 [1] is on record?
A: > 100 µM

Q: What about the IC50 [2] of the same molecule?
A: > 100 µM

Q: And the inhibition at 100 µM [4]?
A: 3.63%

Q: Which IC50 [1] does the source give for `O=C(CO[N+](=O)[O-])N[C@@H](CC(=O)N1CCn2c(nnc2C(F)(F)F)C1)Cc1cc(F)c(F)cc1F` here?
A: > 100 µM

Q: And the IC50 [2]?
A: > 100 µM

Q: What about the Activity [3] of the same molecule?
A: Active

Q: And the inhibition at 100 µM [4]?
A: 22.4%

Q: Which IC50 [1] does the source give for `O=C(CO)N[C@@H](CC(=O)N1CCn2c(nnc2C(F)(F)F)C1)Cc1cc(F)c(F)cc1F` here?
A: > 100 µM

Q: And the IC50 [2]?
A: > 100 µM

Q: What about the inhibition at 100 µM [4] of the same molecule?
A: 3.22%

Q: Which IC50 [1] does the source give for `O=C(CCCO)N[C@@H](CC(=O)N1CCn2c(nnc2C(F)(F)F)C1)Cc1cc(F)c(F)cc1F` here?
A: > 100 µM

Q: What about the IC50 [2] of the same molecule?
A: > 100 µM

Q: What about the inhibition at 100 µM [4] of the same molecule?
A: 3.41%

Q: Which results are given for `O=C(CCCO[N+](=O)[O-])N[C@@H](CC(=O)N1CCn2c(nnc2C(F)(F)F)C1)Cc1cc(F)c(F)cc1F`?
A: IC50 [1]: > 100 µM; IC50 [2]: > 100 µM; Activity [3]: Active; inhibition at 100 µM [4]: 27.6%

Q: With `O=C(CCCCO[N+](=O)[O-])N[C@@H](CC(=O)N1CCn2c(nnc2C(F)(F)F)C1)Cc1cc(F)c(F)cc1F` as the molecule, how does the IC50 [1] read?
A: > 100 µM

Q: What about the IC50 [2] of the same molecule?
A: > 100 µM

Q: And the Activity [3]?
A: Active

Q: And the inhibition at 100 µM [4]?
A: 32.1%

Source: ChEMBL document CHEMBL4325850 (Bioorg Med Chem Lett, 2018)
